Patent US20200277262A1, “N-(CYANO-SUBSTITUTED BENZYL OR PYRIDINYLMETHYL)-3-HYDROXYPICOLINAMIDE DERIVATIVES” (Takeda Pharmaceutical Company Limited, priority 2017, published 2020)

Legend:
[1] = target: T1, PHD2 enzyme (residues 181-417) (Homo sapiens, UniProt Q9GZT9); experiment: Inhibition of PHD2 Enzyme (LC/MS detection of hydroxylated peptide); assay type: biochemical; conditions: 5 nM enzyme, 1 μM biotin-labeled peptide, 2 μM 2-oxoglutarate, 60 min pre-incubation, pH 7.3; -log(IC50), IC50 molar; read-out: Inhibition of PHD2 (pIC50) (converted)
T1 construct: The IC50 values for the PHD2 enzyme (residues 181-417) were determined
T1 sequence (Q9GZT9 181-417): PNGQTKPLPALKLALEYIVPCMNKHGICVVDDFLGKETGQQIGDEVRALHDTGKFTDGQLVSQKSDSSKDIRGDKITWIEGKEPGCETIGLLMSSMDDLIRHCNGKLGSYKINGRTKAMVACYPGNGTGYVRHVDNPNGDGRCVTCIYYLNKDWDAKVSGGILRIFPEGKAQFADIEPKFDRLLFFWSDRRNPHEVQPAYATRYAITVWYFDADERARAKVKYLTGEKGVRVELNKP
Description: The IC50 values for the PHD2 enzyme (residues 181-417) were determined by mixing increasing amounts of an inhibitor with a fixed amount of enzyme (5 nM, final concentration) and Biotin-labeled peptide (Biotin-Asp-Leu-Glu-Met-Leu-Ala-Pro-Tyr-Ile-Pro-Met-Asp-Asp-Asp-Phe-Gln-Leu, 1 μM final concentration) and 2-oxyglutarate (2 μM final concentration) in 50 mM HEPES, 50 mM KCl, 0.5 mM TCEP, 2 μM FeCl2, 0.1 mg/mL BSA, at pH 7.3. The reaction was conducted by pre-incubating the enzyme in the presence of the inhibitor for 60 minutes at room temperature. The activity of the free enzyme was measured by adding the peptide, the 2-oxoglutarate, and ascorbic acid (1 mM final concentration). The enzymatic activity was quenched after 60 minutes by adding an excess of a tight binding inhibitor to the assay mixture. The amount of product released was measured by using a LC/MS system (Agilent HPLC with Applied Biosystems API3000 Mass Spectrometer). Data were analyzed using the classical isotherm equation for the determination of IC50 values and are reported in Table 1, below, as pIC50, i.e., −log(IC50), where IC50 is molar concentration of the test compound at 50% inhibition.
(§1) Table 1 lists biological data for some of the compounds shown in the examples, where larger pIC50 and pEC50 values represent higher potency or activity, respectively. The IC50 data (reported in Table 1 as pIC50) were obtained using the enzyme-based assay described in the specification under the heading “Inhibition of PHD2 Enzyme.” The EC50 data (reported in Table 1 as pEC50) were obtained using the cell-based assay described in the specification under the heading “Cell-based HIF-α Stabilization Assay.”

[2] = test system: HIF1a protein content in H9c2 rat cardiomyocytes; experiment: Cell-based HIF-α Stabilization Assay (HIF1a ELISA); conditions: H9c2 cells, 24 hours compound incubation, concentration giving 50% of desferrioxamine maximum response, -log(EC50), EC50 molar, read-out: Stabilization of HIF-α (pEC50) (converted)
Description: H9c2 rat cardiomyocytes (ATCC) were seeded in 96-well tissue culture microplates and cultured for 24 hours prior to addition of compounds (11 point range of serial dilutions) or DMSO vehicle. After 24 hours of compound incubation, whole cell extracts were prepared by lysing cells in cell extraction buffer containing protease and phosphatase inhibitors (Meso-Scale Discovery). HIF1a protein content was assessed by ELISA (Meso-Scale Discovery) and expressed as % relative to the maximum response obtained from the positive control, desferrioxamine (Sigma-Aldrich). EC50 for each compound was obtained by curve-fitting using XLfit4 MicroSoft Excel curve-fitting software to calculate the compound concentration that results in 50% of the desferrioxamine maximum response.
as §1

Row | SMILES | IC50 [1] | EC50 [2]
1 | N#Cc1ccc(CNC(=O)c2ncccc2O)cc1 [Example 1, N-(4-cyanobenzyl)-3-hydroxypicolinamide] | 0.0631 µM | 10 µM
2 | N#Cc1cccc(CNC(=O)c2ncccc2O)c1 [Example 2, N-(3-cyanobenzyl)-3-hydroxypicolinamide, reference compound] | 3.16 µM | –
3 | N#Cc1ccc(CNC(=O)c2ncccc2O)cn1 [Example 3, N-((6-cyanopyridin-3-yl)methyl)-3-hydroxypicolinamide] | 1 µM | –
4 | Cc1cc(C#N)ccc1CNC(=O)c1ncccc1O [Example 4, N-(4-cyano-2-methylbenzyl)-3-hydroxypicolinamide] | 0.02 µM | 7.94 µM
5 | N#Cc1ccc(CNC(=O)c2ncccc2O)c(F)c1 [Example 5, N-(4-cyano-2-fluorobenzyl)-3-hydroxypicolinamide] | 0.0316 µM | 7.94 µM
6 | N#Cc1ccc(CNC(=O)c2ncccc2O)cc1F [Example 6, N-(4-cyano-3-fluorobenzyl)-3-hydroxypicolinamide] | 0.0316 µM | 6.31 µM
7 | N#Cc1ccc(CNC(=O)c2ncccc2O)c(C(F)(F)F)c1 [Example 7, N-(4-cyano-2-(trifluoromethyl)benzyl)-3-hydroxypicolinamide] | 3.98 µM | –
8 | CCN1CCN(C(=O)c2cnc(C(=O)NCc3ccc(C#N)cc3C)c(O)c2)CC1 [Example 8, N-(4-cyano-2-methylbenzyl)-5-(4-ethylpiperazine-1-carbonyl)-3-hydroxypicolinamide] | 0.1 µM | 12.6 µM
9 | CCN1CCN(C(=O)c2cnc(C(=O)N[C@@H]3CCc4cc(C#N)ccc43)c(O)c2)CC1 [Example 9, (R)—N-(5-cyano-2,3-dihydro-1H-inden-1-yl)-5-(4-ethylpiperazine-1-carbonyl)-3-hydroxypicolinamide] | 0.0501 µM | 12.6 µM
10 | Cc1cc(C#N)cc(C)c1CNC(=O)c1ncccc1O [Example 10, N-(4-cyano-2,6-dimethylbenzyl)-3-hydroxypicolinamide] | 0.0126 µM | 3.16 µM
11 | Cc1cnc(C(=O)NCc2c(C)cc(C#N)cc2C)c(O)c1 [Example 11, N-(4-cyano-2,6-dimethylbenzyl)-3-hydroxy-5-methylpicolinamide] | 0.0316 µM | 7.94 µM
12 | Cc1cc(CNC(=O)c2ncccc2O)c(C)cc1C#N [Example 12, N-(4-cyano-2,5-dimethylbenzyl)-3-hydroxypicolinamide] | 0.0398 µM | 25.1 µM
13 | Cc1cc(C#N)c(F)cc1CNC(=O)c1ncccc1O [Example 13, N-(4-cyano-5-fluoro-2-methylbenzyl)-3-hydroxypicolinamide] | 0.0158 µM | 10 µM
14 | Cc1c(CNC(=O)c2ncccc2O)ccc(C#N)c1F [Example 14, N-(4-cyano-3-fluoro-2-methylbenzyl)-3-hydroxypicolinamide] | 0.0126 µM | 12.6 µM
15 | N#Cc1ccc(CNC(=O)c2ncccc2O)c(Cl)c1 [Example 15, N-(2-chloro-4-cyanobenzyl)-3-hydroxypicolinamide] | 0.0251 µM | 12.6 µM
16 | N#Cc1ccc(CNC(=O)c2ncc(C#N)cc2O)cc1 [Example 16, 5-cyano-N-(4-cyanobenzyl)-3-hydroxypicolinamide] | 0.251 µM | 6.31 µM
17 | Cc1cc(C#N)ccc1CNC(=O)c1ncc(C#N)cc1O [Example 17, 5-cyano-N-(4-cyano-2-methylbenzyl)-3-hydroxypicolinamide] | 0.316 µM | 50.1 µM
18 | N#Cc1ccc2c(c1)CCCC2NC(=O)c1ncccc1O (centres unmarked) [Example 18, N-(6-cyano-1,2,3,4-tetrahydronaphthalen-1-yl)-3-hydroxypicolinamide] | 1.26 µM | 50.1 µM
19 | N#Cc1ccc2c(c1)CC[C@H]2NC(=O)c1ncccc1O [Example 19, (R)—N-(5-cyano-2,3-dihydro-1H-inden-1-yl)-3-hydroxypicolinamide] | 0.01 µM | 6.31 µM

Row | SMILES | IC50 [1] | EC50 [2]
20 | N#Cc1ccc2c(c1)CC[C@H]2NC(=O)c1ncccc1O [Example 20, (R)—N-(5-cyano-2,3-dihydro-1H-inden-1-yl)-3-hydroxypicolinamide] | 0.0126 µM | –
21 | N#Cc1ccc2c(c1)CC[C@@H]2NC(=O)c1ncccc1O [Example 21, (S)—N-(5-cyano-2,3-dihydro-1H-inden-1-yl)-3-hydroxypicolinamide] | 2.51 µM | 50.1 µM
22 | N#Cc1ccc2c(c1)OCC2NC(=O)c1ncccc1O (centres unmarked) [Example 22, N-(6-cyano-2,3-dihydrobenzofuran-3-yl)-3-hydroxypicolinamide] | 0.0398 µM | 7.94 µM
23 | Cc1cnc(C(=O)N[C@@H]2CCc3cc(C#N)ccc32)c(O)c1 [Example 23, (R)—N-(5-cyano-2,3-dihydro-1H-inden-1-yl)-3-hydroxy-5-methylpicolinamide] | 0.0316 µM | 7.94 µM
24 | N#Cc1ccc(CNC(=O)c2ncccc2O)nc1 [Example 24, N-((5-cyanopyridin-2-yl)methyl)-3-hydroxypicolinamide] | 0.398 µM | 7.94 µM
25 | Cc1cc(C#N)cc(C)c1CNC(=O)c1ncc(Cl)cc1O [Example 25, 5-chloro-N-(4-cyano-2,6-dimethylbenzyl)-3-hydroxypicolinamide] | 0.02 µM | 12.6 µM
26 | Cc1cc(C#N)cc(C)c1CNC(=O)c1ncc(C#N)cc1O [Example 26, 5-cyano-N-(4-cyano-2,6-dimethylbenzyl)-3-hydroxypicolinamide] | 0.0251 µM | 12.6 µM
27 | Cc1cc(C#N)cc(C)c1CNC(=O)c1ncc(F)cc1O [Example 27, N-(4-cyano-2,6-dimethylbenzyl)-5-fluoro-3-hydroxypicolinamide] | 0.0158 µM | 6.31 µM
28 | Cc1cc(C#N)cc(C)c1CNC(=O)c1ncc(C(F)(F)F)cc1O [Example 28, N-(4-cyano-2,6-dimethylbenzyl)-3-hydroxy-5-(trifluoromethyl)picolinamide] | 0.0501 µM | 15.8 µM
29 | COc1cnc(C(=O)NCc2c(C)cc(C#N)cc2C)c(O)c1 [Example 29, N-(4-cyano-2,6-dimethylbenzyl)-3-hydroxy-5-methoxypicolinamide] | 0.01 µM | 1.58 µM
30 | N#Cc1ccc2c(c1)CC[C@H]2NC(=O)c1ncc(F)cc1O [Example 30, (R)—N-(5-cyano-2,3-dihydro-1H-inden-1-yl)-5-fluoro-3-hydroxypicolinamide] | 0.0158 µM | 15.8 µM
31 | N#Cc1ccc2c(c1)CC[C@H]2NC(=O)c1ncc(Cl)cc1O [Example 31, (R)-5-chloro-N-(5-cyano-2,3-dihydro-1H-inden-1-yl)-3-hydroxypicolinamide] | 0.0316 µM | 25.1 µM
32 | N#Cc1ccc2c(c1)CC[C@H]2NC(=O)c1ncc(C(F)(F)F)cc1O [Example 32, (R)—N-(5-cyano-2,3-dihydro-1H-inden-1-yl)-3-hydroxy-5-(trifluoromethyl)picolinamide] | 0.126 µM | 39.8 µM
33 | COc1cnc(C(=O)N[C@@H]2CCc3cc(C#N)ccc32)c(O)c1 [Example 33, (R)—N-(5-cyano-2,3-dihydro-1H-inden-1-yl)-3-hydroxy-5-methoxypicolinamide] | 0.00794 µM | 6.31 µM
34 | N#Cc1cnc(C(=O)N[C@@H]2CCc3cc(C#N)ccc32)c(O)c1 [Example 34, (R)-5-cyano-N-(5-cyano-2,3-dihydro-1H-inden-1-yl)-3-hydroxypicolinamide] | 0.0398 µM | 12.6 µM
35 | Cc1cc(C#N)ccc1CNC(=O)c1ncc(F)cc1O [Example 35, N-(4-cyano-2-methylbenzyl)-5-fluoro-3-hydroxypicolinamide] | 0.02 µM | 25.1 µM
36 | Cc1cc(C#N)ccc1CNC(=O)c1ncc(Cl)cc1O [Example 36, 5-chloro-N-(4-cyano-2-methylbenzyl)-3-hydroxypicolinamide] | 0.0398 µM | 25.1 µM
37 | Cc1cc(C#N)ccc1CNC(=O)c1ncc(C(F)(F)F)cc1O [Example 37, N-(4-cyano-2-methylbenzyl)-3-hydroxy-5-(trifluoromethyl)picolinamide] | 0.251 µM | –
38 | COc1cnc(C(=O)NCc2ccc(C#N)cc2C)c(O)c1 [Example 38, N-(4-cyano-2-methylbenzyl)-3-hydroxy-5-methoxypicolinamide] | 0.01 µM | 7.94 µM
